US20110092476A1, “Bicycloheteroaryl compounds as P2X7 modulators and uses thereof” (Renovis, Inc., priority 2006, published 2011)

molecular target: T1, P2X7 receptor (Homo sapiens, UniProt Q99572); test: IL-1β release assay in differentiated THP-1 cells stimulated with BzATP (Example 9); type: cell-based; conditions: 0.1 μM compound (symbols *); differentiated THP-1 cells, BzATP 250 uM; read-out: IL-1β % Inhib. @ 0.3 or 0.1 uM
T1 construct: host or cells: THP-1 cells differentiated with LPS and IFN-γ
T1 sequence (Q99572 1-595): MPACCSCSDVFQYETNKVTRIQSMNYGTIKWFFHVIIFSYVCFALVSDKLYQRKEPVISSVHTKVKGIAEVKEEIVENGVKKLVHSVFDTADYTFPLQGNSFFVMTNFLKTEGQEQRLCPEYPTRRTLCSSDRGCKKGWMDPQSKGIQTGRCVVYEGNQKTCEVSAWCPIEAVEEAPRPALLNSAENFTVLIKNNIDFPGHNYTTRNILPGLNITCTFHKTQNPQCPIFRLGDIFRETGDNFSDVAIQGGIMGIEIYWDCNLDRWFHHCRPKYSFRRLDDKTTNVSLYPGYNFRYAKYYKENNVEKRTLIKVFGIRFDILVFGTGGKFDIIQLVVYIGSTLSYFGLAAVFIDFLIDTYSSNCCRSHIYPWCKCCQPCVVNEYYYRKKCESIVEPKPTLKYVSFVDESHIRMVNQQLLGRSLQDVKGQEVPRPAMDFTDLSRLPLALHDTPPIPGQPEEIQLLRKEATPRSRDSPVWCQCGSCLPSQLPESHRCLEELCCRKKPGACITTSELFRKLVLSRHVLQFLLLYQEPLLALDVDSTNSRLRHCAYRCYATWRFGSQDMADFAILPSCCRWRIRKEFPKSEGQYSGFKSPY
Description: THP-1 cells (ATCC Cat #285-IF-100) are plated in 96 well plates at a concentration of 200,000 cells per well and allowed to differentiate in RPMI-1640 media (ATCC Cat #30-2001) containing 10% FBS, 100 IU/mL penicillin, 100 ug/mL streptomycin, 100 ng/mL LPS and 100 ng/mL IFN-γ for 16 hours. Following differentiation, the cells are treated for an additional 2 hours in RPMI-1640 media containing 100 IU/mL penicillin, 100 ug/mL streptomycin and fresh LPS at 100 ng/mL. The cells are then pretreated for 30 minutes with the compound of interest at the appropriate concentration in RPMI media containing 100 IU/mL penicillin, 100 ug/mL streptomycin. Following the pretreatment 2′,3′-O-(4-benzoylbenzoyl)-adenosine 5′-triphosphate (Sigma Aldrich Cat #B6396) is added to a final concentration of 250 uM and the cells are incubated for an additional 45 minutes. 30 uL of cell supernatant is then collected and IL-1β levels determined via ELISA (R&D systems Cat. #HSLB50) according to manufacturer's recommendations using the Tecan Safire plate reader. Background adjusted IL-1β levels of drug treated and non-treated cells are used to calculate the percent inhibition.
The compounds set forth in Table 1 were tested for activity in a cellular model as described herein. Specifically, cells were pretreated with differing amounts of the compound under test and released IL-1β determined as in Example 9, above. Measurements were made and IC50 values, presented in Table 2, below, were determined by fitting the data to a four parameter logistic equation using GraphPad Prism software (GraphPad Software, Inc). The equation may be expressed by the following formula:
Y=Bottom+(Top−Bottom)/(1+10̂((Log EC50−X)*HillSlope))
Where X is the logarithm of concentration, Y is the response and Y starts at Bottom and goes to Top with a sigmoid shape.

Inhibition at 0.1 µM, 0 to 25%:
Cc1ccc(Cl)c(C(=O)Nc2cccc3c(=O)n(CC(C)O)ccc23)c1 (centres unmarked) [Compound 178]
COc1cc(OC)cc(C(=O)Nc2cccc3c(=O)n(CC4(O)CCCCC4)ccc23)c1 [Compound 19]
Cc1cc(C)c(CC(=O)Nc2cccc3c(=O)n(CC(C)O)ccc23)c(C)c1 (centres unmarked) [Compound 129]
COc1ccc(CCC(=O)Nc2cccc3c(=O)n(C(C)CO)ccc23)cc1 (centres unmarked) [Compound 105]
COc1cccc(CCC(=O)Nc2cccc3c(=O)n(CC4(O)CCCCC4)ccc23)c1 [Compound 10]
COc1ccc(C(=O)Nc2cccc3c(=O)n(C(C)CO)ccc23)cc1C (centres unmarked) [Compound 123]
CCOc1ccc(CC(=O)Nc2cccc3c(=O)n(CC(C)O)ccc23)cc1 (centres unmarked) [Compound 161]
CC(C)(O)Cn1ccc2c(NC(=O)c3ccc(-c4ccccc4)o3)cccc2c1=O [Compound 188]
CC(O)Cn1ccc2c(NC(=O)c3cc4cc(Cl)ccc4o3)cccc2c1=O (centres unmarked) [Compound 181]
CC(O)Cn1ccc2c(NC(=O)c3cc4ccccc4o3)cccc2c1=O (centres unmarked) [Compound 164]
CC(C(=O)Nc1cccc2c(=O)n(C(C)CO)ccc12)c1ccccc1 (centres unmarked) [Compound 103]
COc1ccccc1CC(=O)Nc1cccc2c(=O)n(CC(C)O)ccc12 (centres unmarked) [Compound 155]
COc1ccccc1CCC(=O)Nc1cccc2c(=O)n(C(C)CO)ccc12 (centres unmarked) [Compound 104]
COc1cc(CC(=O)Nc2cccc3c(=O)n(CC(C)O)ccc23)cc(OC)c1 (centres unmarked) [Compound 166]

Inhibition at 0.1 µM, 26 to 50%:
COc1ccc(C(=O)Nc2cccc3c(=O)n(CC(C)O)ccc23)cc1C (centres unmarked) [Compound 183]

same assay, conditions: 0.1 μM compound; differentiated THP-1 cells, BzATP 250 uM; "*" symbols; read-out: IL-1β % Inhib. @ 0.3 or 0.1 uM

Inhibition at 0.1 µM, 26 to 50%:
Cc1ccc(C(=O)Nc2cccc3c(=O)n(CC(C)(C)O)ccc23)cc1Cl [Compound 220]

Inhibition at 0.1 µM, 0 to 25%:
CC(C)(O)Cn1ccc2c(NC(=O)c3ccc(Cl)cc3Cl)cccc2c1=O [Compound 198]
COc1ccc(OC)c(CC(=O)Nc2cccc3c(=O)n(CC(C)(C)O)ccc23)c1 [Compound 210]

same assay, conditions: 0.3 μM compound (symbols +); differentiated THP-1 cells, BzATP 250 uM; read-out: IL-1β % Inhib. @ 0.3 or 0.1 uM

Inhibition at 0.3 µM, 51 to 75%:
O=C(CCc1ccccc1)Nc1cccc2c(=O)n(CCO)ccc12 [Compound 3]

Inhibition at 0.3 µM, 0 to 25%:
O=C(Nc1cccc2c(=O)n(CC3(O)CCCCC3)ccc12)c1cc2ccccc2o1 [Compound 37]
Cc1ccc(Cl)cc1C(=O)Nc1cccc2c(=O)n(CC3(O)CCCCC3)ccc12 [Compound 52]
COc1cc(CC(=O)Nc2cccc3c(=O)n(CC4(O)CCCCC4)ccc23)cc(OC)c1 [Compound 39]
COc1ccc(CC(=O)Nc2cccc3c(=O)n(CCO)ccc23)cc1 [Compound 2]
COc1ccc(CC(=O)Nc2cccc3c(=O)n(CC4(O)CCCCC4)ccc23)c(OC)c1 [Compound 47]
Cc1cccc(CC(=O)Nc2cccc3c(=O)n(CC4(O)CCCCC4)ccc23)c1 [Compound 32]

Inhibition at 0.3 µM, 26 to 50%:
COc1ccccc1CC(=O)Nc1cccc2c(=O)n(CC3(O)CCCCC3)ccc12 [Compound 29]
O=C(Nc1cccc2c(=O)n(CCO)ccc12)c1ccc(C(F)(F)F)cc1C(F)(F)F [Compound 6]
CC(C)Cc1ccc(C(=O)Nc2cccc3c(=O)n(CC4(O)CCCCC4)ccc23)cc1 [Compound 59]

same assay, conditions: 0.3 μM compound; differentiated THP-1 cells, BzATP 250 uM; "+" symbols; read-out: IL-1β % Inhib. @ 0.3 or 0.1 uM

Inhibition at 0.3 µM, 51 to 75%:
C[C@H](C(=O)Nc1cccc2c(=O)n(C(C(N)=O)c3ccc(Cl)cc3)ccc12)c1ccc(Cl)cc1 (stereo partly drawn) [Compound 315, (S)—N-{2-[Carbamoyl-(4-chloro-phenyl)-methyl]-1-oxo-1,2-dihydro-isoquinolin-5-yl}-2-(4-chloro-phenyl)-propionamide]
C[C@@H](CO)n1ccc2c(NC(=O)Cc3ccc(Cl)cc3F)cccc2c1=O [Compound 328]
CC(C(=O)Nc1cccc2c(=O)n([C@H](CO)C(N)=O)ccc12)c1ccc(Cl)cc1 (stereo partly drawn) [Compound 252, (R)-2-{5-[2-(4-Chloro-phenyl)-propionylamino]-1-oxo-1H-isoquinolin-2-yl}-3-hydroxy-propionamide]
C[C@H](C(=O)Nc1cccc2c(=O)n([C@H](C)C(=O)NC3CC3)ccc12)c1ccc(Cl)cc1 [Compound 308, (R)-2-{5-[(S)-2-(4-Chloro-phenyl)-propionylamino]-1-oxo-1H-isoquinolin-2-yl}-N-cyclopropyl-propionamide]

Inhibition at 0.3 µM, 0 to 25%:
O=C(Cc1cccc(C(F)(F)F)c1F)Nc1c(NCCO)ccc2c(=O)n(CCO)ccc12 [Compound 385, 2-(2-Fluoro-3-trifluoromethyl-phenyl)-N-[2-(2-hydroxy-ethyl)-6-(2-hydroxy-ethylamino)-1-oxo-1,2-dihydro-isoquinolin-5-yl]-acetamide]
C[C@H](C(N)=O)n1ccc2c(NC(=O)Cc3ccccc3Cl)cccc2c1=O [Compound 260]

Inhibition at 0.3 µM, > 76%:
CC(C)[C@H](C(=O)NC1CC1)n1ccc2c(NC(=O)[C@@H](C)c3ccc(Cl)cc3)cccc2c1=O [Compound 281, (R)-2-{5-[(S)-2-(4-Chloro-phenyl)-propionylamino]-1-oxo-1H-isoquinolin-2-yl}-N-cyclopropyl-3-methyl-butyramide]
CC(C)(CO)n1ccc2c(NC(=O)Cc3cccc(C(F)(F)F)c3F)cccc2c1=O [Compound 368]
CC(C)C[C@H](CO)n1ccc2c(NC(=O)Cc3ccc(Cl)c(Cl)c3)cccc2c1=O [Compound 275]
C[C@H](C(N)=O)n1ccc2c(NC(=O)Cc3ccc(F)c(F)c3)cccc2c1=O [Compound 303]
O=C(Cc1ccc(Cl)c(F)c1)Nc1cccc2c(=O)n(CCO)ccc12 [Compound 354]
CC(C)(CO)n1ccc2c(NC(=O)Cc3ccc(Cl)cc3F)cccc2c1=O [Compound 374]
C[C@H](C(N)=O)n1ccc2c(NC(=O)Cc3ccc(-c4ccccc4)cc3)cccc2c1=O [Compound 289]
CC(=O)NCCn1ccc2c(NC(=O)Cc3ccc(F)c(F)c3)cccc2c1=O [Compound 392]
COc1ccc2c(=O)n([C@H](C)C(N)=O)ccc2c1NC(=O)Cc1ccc(C(F)(F)F)cc1 [Compound 344, (R)-2-{6-Methoxy-1-oxo-5-[2-(4-trifluoromethyl-phenyl)-acetylamino]-1H-isoquinolin-2-yl}-propionamide]
O=C(Cc1ccc(Cl)c(C(F)(F)F)c1)Nc1cccc2c(=O)n(CC3CCNCC3)ccc12 [Compound 257, 2-(4-Chloro-3-trifluoromethyl-phenyl)-N-(1-oxo-2-piperidin-4-ylmethyl-1,2-dihydro-isoquinolin-5-yl)-acetamide]
C[C@H](C(=O)Nc1cccc2c(=O)n([C@@H](C(N)=O)c3ccccc3)ccc12)c1ccc(Cl)c(Cl)c1 [Compound 278, (S)—N-[2-((R)-Carbamoyl-phenyl-methyl)-1-oxo-1,2-dihydro-isoquinolin-5-yl]-2-(3,4-dichloro-phenyl)-propionamide]
C[C@H](CO)n1ccc2c(NC(=O)Cc3ccc(C(F)(F)F)cc3F)c(Cl)ccc2c1=O [Compound 378]

same assay, conditions: THP-1 cells, BzATP 250 uM, IL-1β by ELISA

IC50, 0.74 nM:
CC(=O)NCCn1ccc2c(NC(=O)Cc3ccc(F)c(F)c3)cccc2c1=O [Compound 392]
